Assay results: PubChem BioAssay AID1918999 (Molecular Pharmacology Branch, DTP, NCI, 2023)

System: 556581-035-R-J1-PDC complex spheroid growth
Assay: Anticancer human tumor 556581-035-R-J1-PDC patient-derived ovarian carcinoma cell line growth inhibition [AhR]
Settings: for IC50: curve of first compound; for viability, T/C: stronger effect = lower value
Procedure, shortened: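 Complex tumor spheroids co-cultured with HUVEC and human MSC stroma; AhR antagonists tested in combination with standard-of-care and investigational agents. Top concentration at or near clinical Cmax (else 10 microM), half-log dilutions; growth expressed as percent test/control.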

[1] = second compound 0.1 µM, first compound 0.0316 µM
[2] = second compound 0.1 µM, first compound 0.1 µM
[3] = second compound 0.1 µM, first compound 0.316 µM
[4] = second compound 0.1 µM, first compound 1 µM
[5] = second compound 0.1 µM, first compound 3.16 µM
[6] = second compound 0.1 µM, first compound 10 µM
[7] = second compound 0.316 µM, first compound 0.0316 µM
[8] = second compound 0.316 µM, first compound 0.1 µM
[9] = second compound 0.316 µM, first compound 0.316 µM
[10] = second compound 0.316 µM, first compound 1 µM
[11] = second compound 0.316 µM, first compound 3.16 µM
[12] = second compound 0.316 µM, first compound 10 µM
[13] = second compound 1 µM, first compound 0.0316 µM
[14] = second compound 1 µM, first compound 0.1 µM
[15] = second compound 1 µM, first compound 0.316 µM
[16] = second compound 1 µM, first compound 1 µM
[17] = second compound 1 µM, first compound 3.16 µM
[18] = second compound 1 µM, first compound 10 µM
[19] = second compound 3.16 µM, first compound 0.0316 µM
[20] = second compound 3.16 µM, first compound 0.1 µM
[21] = second compound 3.16 µM, first compound 0.316 µM
[22] = second compound 3.16 µM, first compound 1 µM
[23] = second compound 3.16 µM, first compound 3.16 µM
[24] = second compound 3.16 µM, first compound 10 µM
[25] = second compound 10 µM, first compound 0.0316 µM
[26] = second compound 10 µM, first compound 0.1 µM
[27] = second compound 10 µM, first compound 0.316 µM
[28] = second compound 10 µM, first compound 1 µM
[29] = second compound 10 µM, first compound 3.16 µM
[30] = second compound 10 µM, first compound 10 µM
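Wherever viability, T/C is given: compound exposure lasted 7 days; 100% = DMSO vehicle control growth.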

Q: `Nc1ccn(C2OC(CO)C(O)C2(F)F)c(=O)n1` (stereo not given) + Cc1cncc(-c2nc(NCCc3c[nH]c4ccccc34)c3ncn(C(C)C)c3n2)c1 was tested. Which IC50 (second compound 0.1 µM) did it give?
A: < 31.6 nM

Q: What about the IC50 (second compound 0.316 µM) of the same compound?
A: < 31.6 nM

Q: And the IC50 (second compound 1 µM)?
A: < 31.6 nM

Q: What about the IC50 (second compound 3.16 µM) of the same compound?
A: < 31.6 nM

Q: What about the IC50 (second compound 10 µM) of the same compound?
A: 6070 nM

Q: And the viability, T/C [1]?
A: 32.8%

Q: What about the viability, T/C [2] of the same compound?
A: 34.5%

Q: And the viability, T/C [3]?
A: 35.8%

Q: What about the viability, T/C [4] of the same compound?
A: 32.9%

Q: What about the viability, T/C [5] of the same compound?
A: 34.1%

Q: And the viability, T/C [6]?
A: 28.2%

Q: What about the viability, T/C [7] of the same compound?
A: 34.5%

Q: What about the viability, T/C [8] of the same compound?
A: 34.9%

Q: And the viability, T/C [9]?
A: 37%

Q: What about the viability, T/C [10] of the same compound?
A: 37.6%

Q: What about the viability, T/C [11] of the same compound?
A: 29.2%

Q: And the viability, T/C [12]?
A: 32.7%

Q: And the viability, T/C [13]?
A: 31.8%

Q: What about the viability, T/C [14] of the same compound?
A: 36.1%

Q: What about the viability, T/C [15] of the same compound?
A: 36%

Q: And the viability, T/C [16]?
A: 36.5%

Q: What about the viability, T/C [17] of the same compound?
A: 32.7%

Q: What about the viability, T/C [18] of the same compound?
A: 28.6%

Q: What about the viability, T/C [19] of the same compound?
A: 43.3%

Q: And the viability, T/C [20]?
A: 45.4%

Q: And the viability, T/C [21]?
A: 44.3%

Q: And the viability, T/C [22]?
A: 45.9%

Q: What about the viability, T/C [23] of the same compound?
A: 38.2%

Q: What about the viability, T/C [24] of the same compound?
A: 33%

Q: What about the viability, T/C [25] of the same compound?
A: 55.7%

Q: What about the viability, T/C [26] of the same compound?
A: 64.2%

Q: And the viability, T/C [27]?
A: 57%

Q: And the viability, T/C [28]?
A: 62.7%

Q: What about the viability, T/C [29] of the same compound?
A: 48.1%

Q: What about the viability, T/C [30] of the same compound?
A: 48.6%

Q: For `O=C(C=Cc1cccc(S(=O)(=O)Nc2ccccc2)c1)NO` + Cc1cncc(-c2nc(NCCc3c[nH]c4ccccc34)c3ncn(C(C)C)c3n2)c1, which IC50 (second compound 0.1 µM) is on record?
A: 1480 nM

Q: What about the IC50 (second compound 0.316 µM) of the same compound?
A: 1680 nM

Q: And the IC50 (second compound 1 µM)?
A: 1420 nM

Q: And the IC50 (second compound 3.16 µM)?
A: 1460 nM

Q: What about the IC50 (second compound 10 µM) of the same compound?
A: 938 nM

Q: What about the viability, T/C [1] of the same compound?
A: 106%

Q: And the viability, T/C [2]?
A: 118%

Q: What about the viability, T/C [3] of the same compound?
A: 90.2%

Q: And the viability, T/C [4]?
A: 58%

Q: What about the viability, T/C [5] of the same compound?
A: 32%

Q: What about the viability, T/C [6] of the same compound?
A: 3.96%

Q: And the viability, T/C [7]?
A: 102%

Q: What about the viability, T/C [8] of the same compound?
A: 104%

Q: And the viability, T/C [9]?
A: 87.3%

Q: What about the viability, T/C [10] of the same compound?
A: 69.6%

Q: What about the viability, T/C [11] of the same compound?
A: 27.9%

Q: What about the viability, T/C [12] of the same compound?
A: 3.92%

Q: And the viability, T/C [13]?
A: 111%

Q: What about the viability, T/C [14] of the same compound?
A: 114%

Q: What about the viability, T/C [15] of the same compound?
A: 82.2%

Q: And the viability, T/C [16]?
A: 60.9%

Q: What about the viability, T/C [17] of the same compound?
A: 28.9%

Q: What about the viability, T/C [18] of the same compound?
A: 5.09%

Q: What about the viability, T/C [19] of the same compound?
A: 108%

Q: What about the viability, T/C [20] of the same compound?
A: 101%

Q: And the viability, T/C [21]?
A: 87%

Q: What about the viability, T/C [22] of the same compound?
A: 62.5%

Q: What about the viability, T/C [23] of the same compound?
A: 26.9%

Q: What about the viability, T/C [24] of the same compound?
A: 6.45%

Q: And the viability, T/C [25]?
A: 92.2%

Q: And the viability, T/C [26]?
A: 88.8%

Q: What about the viability, T/C [27] of the same compound?
A: 80.1%

Q: And the viability, T/C [28]?
A: 43.5%

Q: And the viability, T/C [29]?
A: 24.8%

Q: What about the viability, T/C [30] of the same compound?
A: 4.13%

Q: For `O=C(c1cc(Cc2n[nH]c(=O)c3ccccc23)ccc1F)N1CCN(C(=O)C2CC2)CC1` + Cc1cncc(-c2nc(NCCc3c[nH]c4ccccc34)c3ncn(C(C)C)c3n2)c1, which IC50 (second compound 0.1 µM) is on record?
A: > 10000 nM

Q: What about the IC50 (second compound 0.316 µM) of the same compound?
A: > 10000 nM

Q: What about the IC50 (second compound 1 µM) of the same compound?
A: > 10000 nM

Q: What about the IC50 (second compound 3.16 µM) of the same compound?
A: > 10000 nM

Q: And the IC50 (second compound 10 µM)?
A: > 10000 nM

Q: And the viability, T/C [1]?
A: 98.4%

Q: What about the viability, T/C [2] of the same compound?
A: 107%

Q: And the viability, T/C [3]?
A: 101%

Q: What about the viability, T/C [4] of the same compound?
A: 89.6%

Q: What about the viability, T/C [5] of the same compound?
A: 94.6%

Q: And the viability, T/C [6]?
A: 82%

Q: What about the viability, T/C [7] of the same compound?
A: 112%

Q: What about the viability, T/C [8] of the same compound?
A: 105%

Q: And the viability, T/C [9]?
A: 104%

Q: And the viability, T/C [10]?
A: 91.2%

Q: And the viability, T/C [11]?
A: 91.9%

Q: What about the viability, T/C [12] of the same compound?
A: 78.9%

Q: And the viability, T/C [13]?
A: 108%

Q: What about the viability, T/C [14] of the same compound?
A: 102%

Q: And the viability, T/C [15]?
A: 99.3%

Q: What about the viability, T/C [16] of the same compound?
A: 95.9%

Q: And the viability, T/C [17]?
A: 98.8%

Q: And the viability, T/C [18]?
A: 90.2%

Q: And the viability, T/C [19]?
A: 104%

Q: What about the viability, T/C [20] of the same compound?
A: 108%

Q: And the viability, T/C [21]?
A: 95.3%

Q: What about the viability, T/C [22] of the same compound?
A: 89.2%

Q: What about the viability, T/C [23] of the same compound?
A: 94.3%

Q: What about the viability, T/C [24] of the same compound?
A: 81.3%

Q: What about the viability, T/C [25] of the same compound?
A: 90%

Q: And the viability, T/C [26]?
A: 95.4%

Q: What about the viability, T/C [27] of the same compound?
A: 95.2%

Q: And the viability, T/C [28]?
A: 86.2%

Q: What about the viability, T/C [29] of the same compound?
A: 92.7%

Q: And the viability, T/C [30]?
A: 83.2%
